Holding throughout (test): growth of human tumour cells (NCI), 48 h
Test [1] has as its system BT-549 breast.
Test [2] concerns SR leukemia.
Test [3] has as its system MDA-MB-231 breast.
Test [4] deals with TK-10 renal.
In test [5] the test system is SF-295 CNS.
Test [6] has as its system NCI/ADR-RES ovarian.
In test [7] the test system is NCI-H522 lung.
The subject of test [8] is SK-MEL-5 melanoma.
The subject of test [9] is DU-145 prostate.
In test [10] the test system is MDA-N.

“And” between values parts separate entries of the source, which are not always exact repeats. Equal values may be shown once.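 These data come from cells grown in 96-well plates and exposed to compound for 48 hours at five concentrations. Here, GI50 denotes the concentration required for 50% inhibition of growth. TGI is the concentration that stops growth completely.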

Regarding `CC(C)CCN(CCC(C)C)CC(=O)Nc1ccc(S(=O)(=O)c2ccc(NC(=O)CN(CCC(C)C)CCC(C)C)cc2)cc1`, the GI50 in [1] was 1.16 µM; in test [2] it was 1.72 µM; in test [3] it was 2.08 µM; in [4] it was 12.2 µM; in test [5], 3.86 µM; in [6] it was 2.93 µM. Further, the GI50 is 1.53 µM in test [7], 1.53 µM in test [8] and 2.29 µM in test [9]. Moreover, the TGI in [1] was 3.36 µM; in test [2], 5.19 µM; in [3], 6.39 µM; in test [4], 25.5 µM; in test [5] it was 16.5 µM; in [6], above 100 µM. Further, the TGI is 3.2 µM in [7], 3.05 µM in [8] and 6.16 µM in [9].
Turning to `C=C(CN(C)C)C(=O)c1ccccc1OC`, the TGI in test [1] was 31.9 µM; in test [2], above 56 µM; in [3], 28 µM; in [4], 30.3 µM; in test [10], 34 µM; in [5], above 71.9 µM. The TGI in test [6] was 65.3 µM; in [7], 6.01 µM; in test [8], 31.1 µM; in [9] it was above 64 µM.
Take `N#Cc1c(-c2ccc([N+](=O)[O-])cc2)c2c([nH]c1=O)-c1ccccc1CCC2`: the TGI is 85.9 µM in test [1]; above 100 µM in test [2]; above 100 µM in [3]; above 100 µM in test [4]; above 100 µM in test [10]; above 100 µM in test [5]. The TGI in test [6], in test [7], in test [8] and in [9] was above 100 µM in each case.
As for `O=C1OC(c2ccc(O)cc2)(c2ccc(O)cc2)c2ccc(Cl)c3cccc1c23` (tested in a mixture with another compound), the TGI was 31.7 µM in test [1]; 28.4 µM in test [2]; 26.1 µM in [3]; 52.6 µM in test [4]; 25.7 µM in test [10]; 25.2 µM in test [5]. For the same molecule, the TGI in [6] is 25.7 µM; in test [8], 29.3 µM; in test [9] it was above 75 µM.
Turning to `CC(=O)OC(C(=O)O)C(OC(C)=O)C(OC(C)=O)C(OC(C)=O)C(=O)O` (configuration not stated), the TGI in test [1], in test [2], in test [3], in [4], in test [10] and in test [5] was above 100 µM each time. Moreover, the TGI in test [6], in test [7] and in [8] was above 100 µM throughout.
Take `Cc1csc2nc(-c3cccc([N+](=O)[O-])c3)c(/C=N/N=C(N)N)n12`: the TGI was determined as 2.49 µM in [1]; 2.95 µM in [3]; 3.17 µM in [4]; 3.04 µM in test [10]; 3.12 µM in test [5]; 36.3 µM in test [6]. Besides, the TGI in test [7] turned out to be 3.26 µM; in test [8], 2.74 µM; in test [9], 4.28 µM.
As for `O=C(O)c1cc2ccccc2c(N=Nc2ccc(S(=O)(=O)Nc3ccccn3)cc2)c1O`, the TGI in test [1], in test [2], in [3], in [4], in [10] and in test [5] was above 100 µM in each case. The TGI in test [6], in test [7], in [8] and in test [9] was above 100 µM each time.
Regarding `COc1ccccc1C#C/C=C\C#Cc1ccccc1C#N`, the TGI in test [2] is 29.9 µM; in test [4] it was above 100 µM; in [5], 47.1 µM; in [6], above 100 µM; in [7], 25.7 µM; in test [8], 5.95 µM. In [9], this molecule displayed a TGI above 100 µM.
Consider `COC(=O)c1c(O)ccc2c1c1c(n2CCc2ccc(OC)c(OC)c2)C(=O)c2ccccc2C1=O`, for which the TGI in [1] was determined as 27.8 µM; in test [2], 51.3 µM; in [3], 52.3 µM; in test [4] it was 57.1 µM; in test [10], 25.5 µM; in test [5], 38 µM. Further, the TGI worked out at 31.7 µM in [6], 14 µM in test [7], 23.9 µM in test [8] and 29.5 µM in test [9].
`Cc1ncc(C(=O)Nc2ccc(CN3CCN(C)CC3)c(C(F)(F)F)c2)cc1C#Cc1cnc(N)c2ccc(C#N)cc12`: the GI50 is 0.631 µM in test [1]; 0.0607 µM in [2]; 0.0572 µM in [4]; 0.0545 µM in test [5]; 1.81 µM in test [6]; 0.0788 µM in test [7]. For the same molecule, the GI50 in [9] is 0.0157 µM. Further, the TGI in [1] is above 100 µM; in test [2], above 100 µM; in test [4], 2.82 µM; in test [5], 33.1 µM; in [6], 5.05 µM; in test [7], above 100 µM. The same molecule showed a TGI in test [9] of 2.34 µM.
`Brc1ccc(-c2[nH]c3ccccc3c2/C=N\Nc2ccc(-c3nc4ccccc4[nH]3)cc2)cc1`: the TGI in test [1] is above 100 µM; in [3], 0.559 µM; in test [4], above 100 µM; in test [10], below 0.01 µM; in [5] it was above 100 µM; in test [6], above 100 µM. Besides, the TGI in test [7] was below 0.01 µM; in [8], 1.41 µM; in [9], above 31.8 µM.
Turning to `CC[C@@]1(O)CC(OC2CC(N3CCOCC3)C(O)C(C)O2)c2c(O)c3c(c(O)c2[C@H]1O)C(=O)c1cccc(O)c1C3=O` (some centres not stated), the TGI in test [1] is 0.349 µM; in [2], 25 µM; in test [3] it was 1.94 µM; in test [4], 1.7 µM; in [10], 1.04 µM; in [5], 0.526 µM and 0.357 µM. Besides, the TGI in test [6] was 1.55 µM and 4.61 µM; in test [7] it was 0.906 µM and 0.407 µM; in [8], 0.451 µM and 0.181 µM; in test [9], 0.852 µM. Further, the GI50 in [5] was 0.0292 µM; in test [6], 0.0133 µM; in [7], 0.055 µM; in test [8], 0.0175 µM.
With `O=S(=O)(c1ccccc1)C1CC(c2nc3ccccc3[nH]2)=NO1` (configuration not stated), the TGI in test [1], in test [2], in [3], in test [4], in [10] and in test [5] was above 100 µM throughout. For the same molecule, the TGI in test [6], in test [7], in test [8] and in test [9] was above 100 µM each time.
Take `Cc1[nH]c(C(=O)Nc2ccc(C(=O)NCCN)cc2OC(C)C)c(Cl)c1Cl`: the GI50 in [1] is 10.6 µM; in test [3], 1.69 µM; in test [5], 1.76 µM; in test [6], 4.32 µM; in [8], 1.78 µM; in [9] it was 1.69 µM. Also, the TGI in test [1] was found to be 33 µM; in test [3], 3.27 µM; in test [5], 3.23 µM; in test [6], 22.6 µM; in test [8], 3.2 µM; in test [9] it was 3.14 µM.
As to `O=C(CSCC(=O)N/N=C\c1ccc(F)cc1F)N/N=C\c1ccc(F)cc1F`, the TGI in test [2], in test [3], in test [4], in test [5], in [6] and in test [7] was above 100 µM throughout. Further, the TGI in test [8] and in test [9] was above 100 µM throughout.
`c1ccc(CSC(SCc2ccccc2)c2cccc3ccccc23)cc1`: the TGI in test [2], in test [3], in test [4], in test [10], in test [5] and in [6] was above 10 µM in each case. Moreover, the TGI in [7], in test [8] and in [9] was above 10 µM throughout.
Turning to `C[n+]1c2ccccc2c(N=[N+]=[N-])c2ccccc21`, the TGI in test [1], in [2], in [3], in test [4], in test [5] and in [6] was above 10 µM in each case. Also, the TGI in test [7], in test [8] and in test [9] was above 10 µM each time.
Consider `C[N+]1(C(CO)Cc2c[nH]c3ccccc23)Cc2ccccc2C1` (configuration not stated), for which the TGI in test [1], in test [2], in [3], in test [4], in [10] and in test [5] was above 100 µM in each case. For the same molecule, the TGI in test [6], in test [7], in test [8] and in test [9] was above 100 µM in each case.

Values taken from PubChem BioAssay (NCI).
